Data on seven compounds can be found in patent publication EP0003920A1, “Thieno (3,2-c)- and thieno (2,3-c)pyridines, process for their preparation and their therapeutical application” (OMNIUM FINANCIER AQUITAINE POUR L'HYGIENE ET LA SANTE - …, priority 1978, dated 1979).

One data set has as its system souris. Briefly: Potentiation of an infra-hypnotic dose of sodium pentobarbital. In kind it is in vivo. The settings on record: mouse, 100 mg/kg oral, 30 min before i.p. infra-hypnotic dose of sodium pentobarbital; control 0. The method, then:
Les composés de l'invention potentialisent de façon très nette l'action des hypnotiques. En effet, administrés à différents lots de souris par la voie orale, à la dose de 100 mg/ kg, trente minutes avant l'injection intrapéritonéale d'une dose infra-hypnotique de pentobarbital sodique, ils produisent par rapport aux animaux témoins non traités, une nette poten- tialisation de l'action du barbiturique.
En effet, le nombre de souris endormies, le temps moyen d'endormissement et la durée du sommeil sont nettement accrus dans les lots traités. Les résultats des composés les plus actifs sont rassemblés dans le Tableau I suivant.

The subject of data set [1] is rat. In words: Localised carrageenan-induced oedema. In kind it is in vivo. As to conditions: 100 mg/kg oral at -1 h, 0 h, +2.5 h. The procedure: Une solution de carragénine (0,1 ml), à 1 %, est injectée dans les fléchisseurs métatarsiens de la patte postérieure droite du rat au temps 0. Les animaux du lot traité reçoivent en outre, par la voie orale, 100 mg par kg du dérivé à tester respectivement 1 heure avant, en même temps que l'injection de l'agent phlogogène, puis 1 heure et 2 heures et demi après. Les mesures qui sont effectuées à l'aide du micromètre de ROGH au temps 0, 1 heure, 2 heures, 3 heures et 5 heures après l'administration de la carragénine permettent de déterminer, en fonction du temps, le pourcentage d'activité anti-inflammatoire, par comparaison avec le lot témoin.
A general note: In the carrageenan paw model, swelling and tenderness develop within hours.

Data set [2] is described as follows: Acute toxicity, intravenous LD50 (method of Miller and Tainter). More on the design: species or system souris. As to conditions: mouse, in vivo, read-out: DL50/24 H/kg de poids corporel. The method, then:
En ce qui concerne la toxicité aigüe, la DL50/24 H/kg de poids corporel, déterminée chez la souris selon la méthode de Miller et Tainter pour la voie orale est supérieure à 400 mg pour tous les dérivés.
Selon la même méthode, la DL50/24 H/kg de poids corporel déterminée par la vole intraveineuse est, par exemple, de 154 mg pour le dérivé N° 1, de 89 mg pour le dérivé N° 2, de 184mg pour le dérivé N° 10, de 130 mg pour le dérivé N° 11, de 350mg pour le dérivé N° 12, de 65 mg pour le dérivé N° 18, de 90 mg pour le dérivé N° 22, de 96 mg pour le dérivé N° 24 et de 105 mg pour le dérivé N° 31.

The subject of data set [3] is rat. Briefly: Generalised ovalbumin oedema. The settings on record: po, 100 mg/kg per os 1 h before and together with ovalbumin. The class given is in vivo. The method, then:
Une injection intrapéritonéale simultanée de 1 ml d'ovalbumine et de 0,5 ml d'une solution aqueuse de bleu Evans à 1% est effectuée sur le rat. D'autre part, on administre per os aux animaux du lot traité 100 mg/kg du dérivé à tester une heure avant et en même temps que l'ovalbumine. L'intensité du phénomène ainsi provoqué est notée par un chiffre allant de 1 à 5 suivant la progression du syndrome inflammatoire. On détermine ainsi la moyenne de l'intensité oedémateuse et le pourcentage de diminution de la réaction oedémateuse par rapport au témoin, en fonction du temps.

The subject of data set [4] is rat. In words: Anticonvulsant action against electroshock. The class given is in vivo. The settings on record: 100 mg/kg oral, electroshock 30 min after treatment, score 0 to 4, untreated controls 4. The method, then: Cette action a été étudiée vis-à-vis des électrochocs. L'application chez le rat d'une stimulation électrique supérieure au seuil électro-convulsivant provoque des convulsions expérimentales. On compare alors chez les animaux témoins et chez les animaux traités, à la fois la présence et la durée de chacune des phases convulsives et l'intensité de la crise dans son ensemble.
On établit des séries de 10 rats par produit à tester et on administre par la voie orale, à chaque animal, 100 mg/kg de ce produit.
De chaque côté de la base de la queue de chaque […], une électrode Cat mise en place et 30 minutes après le traitement, l'animal placé dans une enceinte de verre reçoit pendant 50 millisecondes un courant sinusoïdal de 50 périodes/secondes de 120 volts.
Le passage du courant déclenche une crise convulsive dont chacune des phases (tonique, clonique, relachement musculaire) est chronométrée. L'intensité de la crise est alors notée de 0 à 4 selon la présence de chacune des phases et leur durée. Les produits de l'invention sont testés comparativement au phénobarbital qui possède une action anti-convulsivante marquée (intensité de la crise = 2), alors que chez les animaux témoins non traités c'est l'intensité maxima de 4 qui est obtenue.

Where [5] appears, read: 1 h after carrageenan, read-out: Pourcentage d'activité anti-inflammatoire 1ère heure.
Where [6] appears, read: 2 h after carrageenan, read-out: Pourcentage d'activité anti-inflammatoire 2ème heure.
Where [7] appears, read: 3 h after carrageenan, read-out: Pourcentage d'activité anti-inflammatoire 3ème heure.
Setting [8] is: 5 h after carrageenan, read-out: Pourcentage d'activité anti-inflammatoire 5ème heure.
The mark [9] stands for this setting: 2 h after ovalbumin injection, read-out: Pourcentage d'activité anti-inflammatoire 2ème heure.
Setting [10] is: 3 h after ovalbumin injection, read-out: Pourcentage d'activité anti-inflammatoire 3ème heure.

For the compound `O=C(NCc1ccncc1)c1cc2sccc2cn1` [Dérivé 22, (pyridyl-4 méthyl)aminocarbonyl-6 thiéno[3,2-c]pyridine], in the data set with souris, the “Pourcentage d'animaux endormis” value is 70%. Moreover, the inhibition in vivo at 100 mg/kg came out at 41% with rat [1] (setting [5]); 47% with rat [1] (setting [6]); 51% in the data set with rat [1] (setting [7]); 55% in the data set with rat [1] (setting [8]); 51% in the data set on rat [3] (setting [9]); 58% in the data set with rat [3] (setting [10]). In data set [2], the LD50 at 24 h came to 90 mg/kg.

Consider `O=C(c1cc2sccc2cn1)N1CCCC1` [Dérivé 10, (pyrrolidinyl-1)carbonyl-6 thiéno[3,2-c] pyridine], for which, in the data set on souris, the “Pourcentage d'animaux endormis” value came to 90%. Also, the inhibition in vivo at 100 mg/kg worked out at 37% in the data set with rat [1] (setting [5]); 42% with rat [1] (setting [6]); 46% in the data set with rat [1] (setting [7]); 51% in the data set with rat [1] (setting [8]); 47% in the data set with rat [3] (setting [9]); 55% in the data set on rat [3] (setting [10]). The LD50 at 24 h in data set [2] turned out to be 184 mg/kg.

For the compound `CNC(=O)c1cc2sccc2cn1` [Dérivé 1, Méthylaminocarbonyl-6 thiéno [3,2-c] pyridine], the “Pourcentage d'animaux endormis” value in the data set on souris turned out to be 70%. In addition, the inhibition in vivo at 100 mg/kg turned out to be 35% with rat [1] (setting [5]); 42% with rat [1] (setting [6]); 46% in the data set with rat [1] (setting [7]); 47% in the data set with rat [1] (setting [8]); 48% with rat [3] (setting [9]); 56% with rat [3] (setting [10]). Besides, in the data set with rat [4], the “valeurs moyennes de l'intensité des crises” value was 2,5. Also, the LD50 at 24 h in data set [2] turned out to be 154 mg/kg.

Take `CCN(CC)CCNC(=O)c1cc2sccc2cn1` [Dérivé 18, β-diéthylaminoéthylaminocarbonyl-6 thiéno [3,2-c] pyridine]: the “Pourcentage d'animaux endormis” value with souris is 80%. For the same compound, the inhibition in vivo at 100 mg/kg amounted to 41% with rat [1] (setting [5]); 46% with rat [1] (setting [6]); 50% with rat [1] (setting [7]); 55% with rat [1] (setting [8]); 49% in the data set on rat [3] (setting [9]); 58% in the data set on rat [3] (setting [10]). For the same compound, in data set [2], the LD50 at 24 h was found to be 65 mg/kg.

On to `NC(=O)c1cc2sccc2cn1` [Dérivé 31, carbamoyl-6 thiéno [3,2-C] pyridine], for which, in the data set with rat [4], the “valeurs moyennes de l'intensité des crises” value was 2,5. Further, in data set [2], the LD50 at 24 h is 105 mg/kg.

For the compound `O=C(NCc1cccnc1)c1cc2sccc2cn1` [Dérivé 24, (pyridyl-3 méthyl)aminocarbonyl-6 thiéno[3,2-c] pyridine], the LD50 at 24 h in data set [2] turned out to be 96 mg/kg.

For `CN(C)CCNC(=O)c1cc2sccc2cn1` [Dérivé 2, β -diméthylaminoéthylaminocarbonyl-6 thiéno [3,2-c] pyridine], the LD50 at 24 h in data set [2] came to 89 mg/kg.
